Data reported in US6743575B2, “Compositions and methods for the preservation of living tissues” (Biostore New Zealand Ltd., priority 1996, dated 2004).

System: mouse embryos
Test: Storage of mouse embryos at 4° C., survival assessed by hatching in subsequent culture
Type: cell-based
Settings: for ranking of Class I and Class II solutes for hatching of stored embryos: storage 1-3 days at 4° C., Class I:Class II 1.6:1, 1.75 mM CaSO4
Protocol: The efficacy of the solutions of the present invention in the preservation of mouse embryos was tested as described below. As embryos consist of rapidly dividing cells, they are difficult to arrest, and therefore provide a sensitive test of storage solutions. Embryos also have the advantage that survival in storage can be assessed after 1-5 days by their ability to hatch in subsequent culture.
Viable mouse embryos were stored for periods of 1, 2 or 3 days at 4° C. in either PBS or an aqueous solution of either raffinose, trehalose, sucrose or lactose (Class I solutes), together with a solute selected from the group consisting of trimethyl amine oxide (TMAO), betaine, taurine, sarcosine, glucose, mannose, fructose, ribose, galactose, sorbitol, mannitol, inositol and taurine (Class II solutes), at a ratio of Class I solute to Class II solute of 1.6:1. Each Class I/Class II solution also contained calcium sulfate at a concentration of 1.75 mM. The solutions also contained 0.1-1% bovine serum albumin (BSA) and 25 mg/L of kanamycin sulfate. All reagents were obtained from Sigma Chemical Company (St. Louis, Mo.). Survival of the embryos was assessed by subsequent culture in Dulbecco's Modified Eagles Medium (DMEM, Life Technologies, Grand Island, N.Y.) and was expressed both as the number of live embryos present after storage and the number of embryos which hatched after 48 hours in culture at 37° C.
Mouse embryos were incubated with either sodium butyrate or a Class II solute at either, room temperature, 30° C. or 4° C. prior to storage in Solution 70/30 for up to five days at 4° C. […] Sodium butyrate replaced sodium chloride at the same concentration in PBS. FIGS. 8A, B and C show the percentage of mouse embryos hatching after 1, 2 and 3 days, respectively, in storage following pretreatment with sodium butyrate at concentrations of 5, 10 or 15 mM for either 10, 20 or 30 minutes. FIGS. 8D, E and F show the percentage of mouse embryos alive after 1, 2 and 3 days, respectively, in storage following pretreatment with sodium butyrate at concentrations of 5, 10 or 15 mM for either 10, 20 or 30 minutes. Pretreatment with sodium butyrate allowed up to 80% of embryos to hatch following three days of storage in Solution 70/30. After 5 days of storage in Solution 70/30 following pretreatment with higher concentrations of sodium butyrate, up to 70% of embryos hatched compared to 2% with no pretreatment (see FIG. 9). Embryos stored in PBS without pretreatment lasted no longer than 3 days. […] FIGS. 10A, B, C and D show the survival of mouse embryos after up to four days of storage in Solution 70/30 at 4° C. following pretreatment with 25 mM sodium butyrate for 5, 10 or 15 minutes at room temperature.

Compound: C[N+](C)(C)CC(=O)O [betaine]
- ranking of Class I and Class II solutes for hatching of stored embryos: second best

Compound: OC[C@H]1O[C@H](OC[C@H]2O[C@H](O[C@]3(CO)O[C@H](CO)[C@@H](O)[C@@H]3O)[C@H](O)[C@@H](O)[C@@H]2O)[C@H](O)[C@@H](O)[C@H]1O [Raffinose, raffinose]
- ranking of Class I and Class II solutes for hatching of stored embryos: best Class I solute

Compound: OC[C@H]1O[C@H](O[C@H]2O[C@H](CO)[C@@H](O)[C@H](O)[C@H]2O)[C@H](O)[C@@H](O)[C@@H]1O [trehalose]
- ranking of Class I and Class II solutes for hatching of stored embryos: second best

Compound: C[N+](C)(C)[O-] [TMAO, trimethyl amine oxide]
- ranking of Class I and Class II solutes for hatching of stored embryos: best Class II solute

Compound: CCCC(=O)[O-].[Na+] [sodium butyrate]
- embryos hatched (5 days of storage in Solution 70/30 after pretreatment with higher concentrations of sodium butyrate): up to 70%
- embryos hatching (three days of storage in Solution 70/30 at 4° C. after pretreatment with sodium butyrate): up to 80%
